Measurements taken from patent publication US7534782B2, “Crystal of 1-methylcarbapenem solvate” (Sankyo Company, Limited, priority 2003, dated 2009).
Read-outs that look alike come from different tables or passages of the source.

Experiments:
[1] = storage stability of the crystalline forms; type: physicochemical
[2] = system: Gram-negative bacterial strains and Gram-positive bacterial strains; settings: cited from earlier work

## C[C@@H](O)[C@H]1C(=O)N2C(C(=O)O)=C(S[C@H]3C[C@@H](C(=O)N4CC[C@H](NC(=O)CNC(=N)N)C4)N(C)C3)[C@H](C)[C@H]12 [Crystalline form (I-1), (1R,5S,6S)-2-[(2S,4S)-2-[(3S)-3-(2-Guanidinoacetylamino)pyrrolidin-1-ylcarbonyl]-1-methylpyrrolidin-4-ylthio]-6-[(1R)-1-hydroxyethyl]-1-methyl-1-carbapen-2-em-3-carboxylic acid ethanolate]
[1]; dry conditions
  storage stability under dry conditions: improved storage stability

## C[C@@H](O)[C@H]1C(=O)N2C(C(=O)O)=C(S[C@H]3C[C@@H](C(=O)N4CC[C@H](NC(=O)CNC(=N)N)C4)N(C)C3)[C@H](C)[C@H]12 [Crystalline form (I-2), (1R,5S,6S)-2-[(2S,4S)-2-[(3S)-3-(2-Guanidinoacetylamino)pyrrolidin-1-ylcarbonyl]-1-methylpyrrolidin-4-ylthio]-6-[(1R)-1-hydroxyethyl]-1-methyl-1-carbapen-2-em-3-carboxylic acid tetrahydrate]
[1]
  stability during storage under conditions of normal or high humidity: stable during storage

## C[C@@H](O)[C@H]1C(=O)N2C(C(=O)O)=C(S[C@H]3C[C@@H](C(=O)N4CC[C@H](NC(=O)CNC(=N)N)C4)N(C)C3)[C@H](C)[C@H]12 [Crystalline form (I-3), (1R,5S,6S)-2-[(2S,4S)-2-[(3S)-3-(2-Guanidinoacetylamino)pyrrolidin-1-ylcarbonyl]-1-methylpyrrolidin-4-ylthio]-6-[(1R)-1-hydroxyethyl]-1-methyl-1-carbapen-2-em-3-carboxylic acid ethanolate trihydrate]
[1]; trihydrate
  stability during storage under conditions of normal or high humidity: remains stable during storage

## C[C@@H](O)[C@H]1C(=O)N2C(C(=O)O)=C(S[C@H]3C[C@@H](C(=O)N4CC[C@H](NC(=O)CNC(=N)N)C4)N(C)C3)[C@H](C)[C@H]12 [compound (I), (1R,5S,6S)-2-[(2S,4S)-2-[(3S)-3-(2-guanidinoacetylamino)pyrrolidin-1-ylcarbonyl]-1-methylpyrrolidin-4-ylthio]-6-[(1R)-1-hydroxyethyl]-1-methyl-1-carbapen-2-em-3-carboxylic acid]
[2]
  antibiotic activity: excellent antibiotic activity
[2]; listed as 1-methylcarbapenem compound of formula (I)
  antibiotic activity: potent antibiotic activity
